Source: ChEMBL document CHEMBL5137036, “Design and synthesis of highly TRAIL expression HDAC inhibitors based on ONC201 to promote apoptosis of colorectal cancer” (Eur J Med Chem, 2022)
Activity calls are given as the source filed them. No cut-off for these calls is given here.

Experiments:
[1] = target: T1, Histone deacetylase 1 (Homo sapiens, UniProt Q13547); assay: Inhibition of human HDAC1 using RHKKAc fluorogenic peptide as substrate preincubated for 10 mins followed by substrate addition by fluorescence based analysis
T1 sequence (Q13547 whole entry): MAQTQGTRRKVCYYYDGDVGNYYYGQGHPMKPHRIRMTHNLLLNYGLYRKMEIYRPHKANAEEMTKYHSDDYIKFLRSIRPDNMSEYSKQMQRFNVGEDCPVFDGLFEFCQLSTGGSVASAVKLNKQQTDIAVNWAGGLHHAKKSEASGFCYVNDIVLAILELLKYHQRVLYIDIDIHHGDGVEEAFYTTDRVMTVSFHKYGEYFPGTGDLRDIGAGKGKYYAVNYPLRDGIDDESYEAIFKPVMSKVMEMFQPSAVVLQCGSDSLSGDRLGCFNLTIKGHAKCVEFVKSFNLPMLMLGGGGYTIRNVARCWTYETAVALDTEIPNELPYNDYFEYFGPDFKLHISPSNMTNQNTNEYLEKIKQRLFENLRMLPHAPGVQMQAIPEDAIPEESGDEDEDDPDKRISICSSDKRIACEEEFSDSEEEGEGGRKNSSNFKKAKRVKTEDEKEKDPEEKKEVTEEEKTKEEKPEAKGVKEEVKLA

[2] = test system: MV4-11; assay: Antiproliferative activity against human MV4-11 cells assessed as inhibition of cell growth incubated for 72 hrs by luminescence based analysis; format: functional; details: MV4-11, 72 h
[3] = test system: HepG2; assay: Antiproliferative activity against human HepG2 cells assessed as inhibition of cell growth incubated for 72 hrs by luminescence based analysis; format: functional; details: HepG2, 72 h
[4] = test system: HCT-116; assay: Antiproliferative activity against human HCT-116 cells assessed as residual activity at 2 uM incubated for 72 hrs by luminescence based analysis relative to control; format: functional
[5] = test system: HCT-116; assay: Antiproliferative activity against human HCT-116 cells assessed as inhibition of cell growth incubated for 72 hrs by luminescence based analysis; format: functional; details: HCT-116, 72 h
[6] = target: T1, Histone deacetylase 1; assay: Inhibition of human HDAC1 assessed as residual activity at 1 uM using RHKKAc fluorogenic peptide as substrate preincubated for 10 mins followed by substrate addition by fluorescence based analysis relative to control
[7] = target: T1, Histone deacetylase 1; assay: Inhibition of HDAC1 in human HCT-116 cells assessed as increase in DR5 protein expression at 0.5 uM incubated for 12 hrs by Western blot analysis; format: cell-based
[8] = test system: HCT-116; assay: Induction of apoptosis in human HCT-116 cells assessed as early apoptotic cells at 0.5 uM incubated for 24 hrs by AnnexinV-FITC/PI staining based flow cytometry (reference value: 0.93 %); format: functional
[9] = test system: HCT-116; assay: Induction of apoptosis in human HCT-116 cells assessed as dead cells at 0.5 uM incubated for 24 hrs by AnnexinV-FITC/PI staining based flow cytometry (reference value: 4.62 %); format: functional
[10] = test system: HCT-116; assay: Induction of apoptosis in human HCT-116 cells assessed as late apoptotic cells at 0.5 uM incubated for 24 hrs by AnnexinV-FITC/PI staining based flow cytometry (reference value: 0.82 %); format: functional
[11] = test system: HCT-116; assay: Induction of apoptosis in human HCT-116 cells assessed as viable cells at 0.5 uM incubated for 24 hrs by AnnexinV-FITC/PI staining based flow cytometry (reference value: 93.64%); format: functional; details: read-out: Activity

| Compound | IC50 [1] | IC50 [2] | IC50 [3] | Activity [6] | also measured |
| --- | --- | --- | --- | --- | --- |
| NC1=C(CCNC(=O)c2ccccc2)C(=O)N(Cc2ccc(C(=O)Nc3ccccc3N)cc2)C2=NCCN21 | 0.273 µM | 0.828 µM | 1.27 µM |  | Activity [4]: 88.98% |
| Nc1ccccc1NC(=O)c1ccc(CN2C(=O)C3=C(CCN(C(=O)/C=C/c4ccc(Cl)cc4F)C3)N3CCN=C23)cc1 | 0.278 µM | 1.45 µM | 6.17 µM |  | IC50 [5]: 0.662 µM |
| Nc1ccccc1NC(=O)c1ccc(CN2C(=O)C3=C(CCN(Cc4ccc(Cl)c(C(F)(F)F)c4)C3)N3CCN=C23)cc1 |  |  |  | 52.2% |  |
| CC(c1ccccc1)N1C(=O)C2=C(CCN(Cc3ccc(C(=O)Nc4ccccc4N)cc3)C2)N2CCN=C21 (stereo not drawn) |  |  |  | 46.3% |  |
| COc1ccc(CN2CCC3=C(C2)C(=O)N(Cc2ccc(C(=O)Nc4ccccc4N)cc2)C2=NCCN23)cc1 |  |  |  | 44.4% |  |
| N#Cc1ccc(CN2C(=O)C3=C(CCN(Cc4ccc(C(=O)Nc5ccccc5N)cc4)C3)N3CCN=C23)cc1 | 0.174 µM | 0.957 µM | 4.72 µM |  | IC50 [5]: 0.967 µM |
| Nc1ccccc1NC(=O)c1ccc(CN2C(=O)C3=C(CCN(Cc4ccccc4)C3)N3CCN=C23)cc1 | 0.198 µM | 0.753 µM | 4 µM |  | IC50 [5]: 1.45 µM; inhibition [7]: Active |
| NC1=C(CCCc2ccccc2)C(=O)N(Cc2ccc(C(=O)Nc3ccc(F)cc3N)cc2)C2=NCCN21 | 0.413 µM |  |  |  |  |
| Nc1ccccc1NC(=O)c1ccc(CN2CCC3=C(C2)C(=O)N(Cc2cccnc2)C2=NCCN23)cc1 |  |  |  | 46.4% |  |
| Nc1cc(F)ccc1NC(=O)c1ccc(CNC(=O)/C=C/c2cccnc2)cc1 [TUCIDINOSTAT] |  | 0.783 µM | 2 µM |  | Activity [8]: 1.22%; Activity [9]: 8.27%; Activity [10]: 1.66%; viability at 0.5 µM [11]: 88.8% |
| Cc1ccc(/C=C/C(=O)N2CCC3=C(C2)C(=O)N(Cc2ccc(C(=O)Nc4ccccc4N)cc2)C2=NCCN23)o1 | 0.377 µM | 2.43 µM | 4.52 µM |  | Activity [4]: 79.55% |
| Cc1ccccc1CN1C(=O)C2=C(CCN(Cc3ccc(C(=O)Nc4ccccc4N)cc3)C2)N2CCN=C12 | 0.253 µM | 0.801 µM | 3.56 µM |  | IC50 [5]: 1.08 µM |
| Nc1ccccc1NC(=O)c1ccc(CN2C(=O)C(CCCc3ccccc3)=C(O)N3CCN=C23)cc1 | 0.6 µM |  |  |  |  |
| NC1=C(CCCc2ccccc2)C(=O)N(Cc2ccc(C(=O)Nc3ccccc3N)cc2)C2=NCCN21 | 0.0669 µM | 1.27 µM | 4.49 µM |  | IC50 [5]: 0.673 µM; inhibition [7]: Active |
| CNC1=C(CCCc2ccccc2)C(=O)N(Cc2ccc(C(=O)Nc3ccccc3N)cc2)C2=NCCN21 |  |  |  | 63.8% |  |
| Nc1ccccc1NC(=O)c1ccc(CN2C(=O)C3=C(CCN(Cc4nc5ccccc5[nH]4)C3)N3CCN=C23)cc1 |  |  |  | 58.3% |  |
| Nc1cc(F)ccc1NC(=O)c1ccc(CN2C(=O)C3=C(CCN(Cc4ccccc4)C3)N3CCN=C23)cc1 |  |  |  | 78.3% |  |
| Cc1ccccc1CN1CCC2=C(C1)C(=O)N(Cc1ccc(C(=O)Nc3ccc(F)cc3N)cc1)C1=NCCN12 |  |  |  | 68% |  |
| Nc1ccccc1NC(=O)c1ccc(CN2CCC3=C(C2)C(=O)N(Cc2cccc(F)c2)C2=NCCN23)cc1 |  |  |  | 49.1% |  |
| Nc1ccccc1NC(=O)c1ccc(CN2C(=O)C3=C(CCN(Cc4ccc5ccccc5c4)C3)N3CCN=C23)cc1 |  |  |  | 58.1% |  |
